Reference: patent publication US20090018111A1, “Novel Antimicrobial Medicament” (priority 2004, published 2009)
Where two headings read alike, the source gives them in different places.

Key:
Assay in all cases: Sensitivity test (agar dilution)
M. catarrhalis ATCC25238 = format: cell-based, Moraxella catarrhalis; conditions: Moraxella catarrhalis, read-out: MIC
In short: (§1)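 Water-dissolved compounds, alone or mixed, were incorporated into Mueller Hinton agar at twofold serial concentrations. Spot inoculation used about 5 μl of about 10^6 CFU/ml suspension.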

M. catarrhalis ATCC8176 = format: cell-based, Moraxella catarrhalis; conditions: Moraxella catarrhalis, read-out: MIC
In short: as §1

[1] = tested on: S. aureus SP-7928 (homo-MRSA); format: cell-based, Staphylococcus aureus; conditions: Staphylococcus aureus, MRSA, read-out: MIC
In short: as §1

[2] = tested on: S. aureus MS94088 (hetero-MRSA); format: cell-based, Staphylococcus aureus; conditions: Staphylococcus aureus, MRSA
In short: as §1

S. aureus 209P = format: cell-based, Staphylococcus aureus; conditions: Staphylococcus aureus, 209P, read-out: MIC
In short: as §1

C. freundii GN346 = format: cell-based, Citrobacter freundii; conditions: Citrobacter freundii, read-out: MIC
In short: as §1

P. aeruginosa IFO3451 = format: cell-based, Pseudomonas aeruginosa; conditions: Pseudomonas aeruginosa, read-out: MIC
In short: as §1

P. aeruginosa TL-2667 = format: cell-based, Pseudomonas aeruginosa; conditions: Pseudomonas aeruginosa, read-out: MIC
In short: as §1

P. aeruginosa TL-2666 = format: cell-based, Pseudomonas aeruginosa; conditions: Pseudomonas aeruginosa, read-out: MIC
In short: as §1

S. maltophilia IID1275 = format: cell-based, Stenotrophomonas maltophilia; conditions: Stenotrophomonas maltophilia, read-out: MIC
In short: as §1

M. luteus ATCC9341 = format: cell-based, Micrococcus luteus; conditions: Micrococcus luteus
In short: as §1

K. pneumoniae ATCC10031 = format: cell-based, Klebsiella pneumoniae; conditions: Klebsiella pneumoniae, read-out: MIC
In short: as §1

E. aerogenes ATCC13048 = format: cell-based, Enterobacter aerogenes; conditions: Klebsiella aerogenes, read-out: MIC
In short: as §1

[3] = Concomitant drug (MEPM:SM = 2:1)

Compound `C[C@@H](O)[C@H]1C(=O)N2C(C(=O)O)=C(S[C@@H]3CN[C@H](C(=O)N(C)C)C3)[C@H](C)[C@H]12` [MEPM, meropenem] has an MIC (M. catarrhalis ATCC25238; ATCC25238, Concomitant (MEPM:SM = 1:1)) of no more than 0.016 µg/mL, an MIC (M. catarrhalis ATCC25238; ATCC25238, Concomitant (MEPM:SM = 1:2)) of no more than 0.016 µg/mL and an MIC (M. catarrhalis ATCC25238; ATCC25238, Concomitant (MEPM:SM = 1:4)) of no more than 0.016 µg/mL. The MIC (M. catarrhalis ATCC25238; ATCC25238, Concomitant drug (MEPM:SM = 2:1)) was no more than 0.016 µg/mL, the MIC (M. catarrhalis ATCC25238; ATCC25238, alone) was no more than 0.016 µg/mL and the MIC (M. catarrhalis ATCC8176; ATCC8176, Concomitant (MEPM:SM = 1:1)) was no more than 0.016 µg/mL. The MIC (M. catarrhalis ATCC8176; ATCC8176, Concomitant (MEPM:SM = 1:2)) was no more than 0.016 µg/mL, the MIC (M. catarrhalis ATCC8176; ATCC8176, Concomitant (MEPM:SM = 1:4)) was no more than 0.016 µg/mL and the MIC (M. catarrhalis ATCC8176; ATCC8176, Concomitant drug (MEPM:SM = 2:1)) was no more than 0.016 µg/mL. It also gave an MIC (M. catarrhalis ATCC8176; ATCC8176, alone) of no more than 0.016 µg/mL, an MIC ([1]; Concomitant (MEPM:SM = 1:1)) of 1 µg/mL and an MIC ([1]; Concomitant (MEPM:SM = 1:2)) of 1 µg/mL. The MIC ([1]; Concomitant (MEPM:SM = 1:4)) was 0.5 µg/mL, the MIC [1, 3] was 2 µg/mL and the MIC ([1]; alone) was 32 µg/mL. The MIC [2] was 0.125 µg/mL, the MIC ([2]; Concomitant (MEPM:SM = 1:1), read-out: MIC) was 0.25 µg/mL and the MIC ([2]; Concomitant (MEPM:SM = 1:4), read-out: MIC) was 0.063 µg/mL. The MIC ([2]; Concomitant drug (MEPM:SM = 2:1), read-out: MIC) was 0.5 µg/mL, the MIC ([2]; alone, read-out: MIC) was 4 µg/mL and the MIC (S. aureus 209P; Concomitant (MEPM:SM = 1:1)) was no more than 0.016 µg/mL. The MIC (S. aureus 209P; Concomitant (MEPM:SM = 1:2)) was no more than 0.016 µg/mL, the MIC (S. aureus 209P; Concomitant (MEPM:SM = 1:4)) was no more than 0.016 µg/mL and the MIC (S. aureus 209P; [3]) was no more than 0.016 µg/mL. It also gave an MIC (S. aureus 209P; alone) of 0.063 µg/mL, an MIC (C. freundii GN346; GN346, Concomitant (MEPM:SM = 1:1)) of 0.031 µg/mL and an MIC (C. freundii GN346; GN346, Concomitant (MEPM:SM = 1:2)) of 0.031 µg/mL. It also gave an MIC (C. freundii GN346; GN346, Concomitant (MEPM:SM = 1:4)) of 0.031 µg/mL, an MIC (C. freundii GN346; GN346, Concomitant drug (MEPM:SM = 2:1)) of 0.031 µg/mL and an MIC (C. freundii GN346; GN346, alone) of 0.063 µg/mL. For the same compound, the MIC (P. aeruginosa IFO3451; IFO3451, Concomitant (MEPM:SM = 1:1)) was 0.5 µg/mL, the MIC (P. aeruginosa IFO3451; IFO3451, Concomitant (MEPM:SM = 1:2)) was 0.5 µg/mL and the MIC (P. aeruginosa IFO3451; IFO3451, Concomitant (MEPM:SM = 1:4)) was 0.5 µg/mL. The MIC (P. aeruginosa IFO3451; IFO3451, Concomitant drug (MEPM:SM = 2:1)) was 0.5 µg/mL, the MIC (P. aeruginosa IFO3451; IFO3451, alone) was 0.5 µg/mL and the MIC (P. aeruginosa TL-2667; TL2667, Concomitant (MEPM:SM = 1:1)) was 4 µg/mL. It also gave an MIC (P. aeruginosa TL-2667; TL2667, Concomitant (MEPM:SM = 1:2)) of 2 µg/mL, an MIC (P. aeruginosa TL-2667; TL2667, Concomitant (MEPM:SM = 1:4)) of 2 µg/mL and an MIC (P. aeruginosa TL-2667; TL2667, Concomitant drug (MEPM:SM = 2:1)) of 4 µg/mL. It also gave an MIC (P. aeruginosa TL-2667; TL2667, alone) of 4 µg/mL, an MIC (P. aeruginosa TL-2666; TL2666, Concomitant (MEPM:SM = 1:1)) of 1 µg/mL and an MIC (P. aeruginosa TL-2666; TL2666, Concomitant (MEPM:SM = 1:2)) of 1 µg/mL. The MIC (P. aeruginosa TL-2666; TL2666, Concomitant (MEPM:SM = 1:4)) was 1 µg/mL, the MIC (P. aeruginosa TL-2666; TL2666, Concomitant drug (MEPM:SM = 2:1)) was 1 µg/mL and the MIC (P. aeruginosa TL-2666; TL2666, alone) was 1 µg/mL. It also gave an MIC (S. maltophilia IID1275; IID1275, Concomitant (MEPM:SM = 1:1)) greater than 32 µg/mL, an MIC (S. maltophilia IID1275; IID1275, Concomitant (MEPM:SM = 1:2)) greater than 32 µg/mL and an MIC (S. maltophilia IID1275; IID1275, Concomitant (MEPM:SM = 1:4)) greater than 32 µg/mL. For the same compound, the MIC (S. maltophilia IID1275; IID1275, Concomitant drug (MEPM:SM = 2:1)) was greater than 32 µg/mL, the MIC (S. maltophilia IID1275; IID1275, alone) was greater than 32 µg/mL and the MIC (M. luteus ATCC9341; ATCC9341) was 0.125 µg/mL. The MIC (M. luteus ATCC9341; ATCC9341, Concomitant (MEPM:SM = 1:1), read-out: MIC) was no more than 0.016 µg/mL, the MIC (M. luteus ATCC9341; ATCC9341, Concomitant (MEPM:SM = 1:2), read-out: MIC) was no more than 0.016 µg/mL and the MIC (M. luteus ATCC9341; ATCC9341, Concomitant (MEPM:SM = 1:4), read-out: MIC) was no more than 0.016 µg/mL. For the same compound, the MIC (M. luteus ATCC9341; ATCC9341, Concomitant drug (MEPM:SM = 2:1), read-out: MIC) was no more than 0.016 µg/mL, the MIC (K. pneumoniae ATCC10031; ATCC10031, Concomitant (MEPM:SM = 1:1)) was no more than 0.016 µg/mL and the MIC (K. pneumoniae ATCC10031; ATCC10031, Concomitant (MEPM:SM = 1:2)) was no more than 0.016 µg/mL. For the same compound, the MIC (K. pneumoniae ATCC10031; ATCC10031, Concomitant (MEPM:SM = 1:4)) was no more than 0.016 µg/mL, the MIC (K. pneumoniae ATCC10031; ATCC10031, Concomitant drug (MEPM:SM = 2:1)) was no more than 0.016 µg/mL and the MIC (K. pneumoniae ATCC10031; ATCC10031, alone) was no more than 0.016 µg/mL. The MIC (E. aerogenes ATCC13048; ATCC13048, Concomitant (MEPM:SM = 1:1)) was no more than 0.016 µg/mL, the MIC (E. aerogenes ATCC13048; ATCC13048, Concomitant (MEPM:SM = 1:2)) was 0.031 µg/mL and the MIC (E. aerogenes ATCC13048; ATCC13048, Concomitant (MEPM:SM = 1:4)) was 0.031 µg/mL. For the same compound, the MIC (E. aerogenes ATCC13048; ATCC13048, Concomitant drug (MEPM:SM = 2:1)) was 0.031 µg/mL and the MIC (E. aerogenes ATCC13048; ATCC13048, alone) was 0.063 µg/mL.
